Assay results from patent publication US12036312B2, “Non-aqueous topical compositions comprising a halogenated salicylanilide” (priority 2016, dated 2024).

System: S. aureus
Assay: MIC assay according to CLSI criteria, Example 2, S. aureus strains
Type: cell-based, Staphylococcus aureus
Conditions: Staphylococcus aureus
Source text: Chosen for its relevance regarding bacterial skin infections, the methicillin-resistant S. aureus (MRSA) 01 strain was used as the primary test microorganism. This strain is a community-acquired MRSA clinical isolate of USA 300 type, from a skin abscess.
Two-hundred-four other MRSA and methicillin-sensitive S. aureus strains, and 4 Streptococcus pyogenes strains, were also included in the study. These covered fusidic acid- and mupirocin-resistant strains, these two types of resistance being of clinical relevance.
Strains were conserved in Luria Bertani (LB) Broth (S. aureus) or Brain Heart Infusion (BHI) (S. pyogenes) supplemented with glycerol 15% (v/v) at −80° C., and reactivated by isolation on LB (S. aureus) or BHI (S. pyogenes) agar plates. Strains were cultivated in Mueller Hinton (MH) Broth-cation adjusted (S. aureus) or BHI (S. pyogenes). All strains were cultivated aerobically (microaerobically for S. pyogenes strains) at 37° C.
Bacterial cultures were stopped in their exponential growth phase and plates were inoculated with the approximate concentration of 5×10^5 cells per well. Plates were incubated at 37° C. for 18 hours (S. aureus) or 24 hours (S. pyogenes). Optical density at a wavelength of 600 nm was measured at the end of the incubation time.

Measured: MIC

CN[C@H](CC(C)C)C(=O)N[C@H]1C(=O)N[C@@H](CC(N)=O)C(=O)N[C@H]2C(=O)N[C@H]3C(=O)N[C@H](C(=O)N[C@H](C(=O)O)c4cc(O)cc(O)c4-c4cc3ccc4O)[C@H](O)c3ccc(c(Cl)c3)Oc3cc2cc(c3O[C@@H]2O[C@H](CO)[C@@H](O)[C@H](O)[C@H]2O[C@H]2C[C@](C)(N)[C@H](O)[C@H](C)O2)Oc2ccc(cc2Cl)[C@H]1O [Vancomycin, vancomycin]
2 µg/mL: MRSA, strain MRSA 02 | MRSA, strain MRSA 04 | MRSA, strain MRSA 06 | MRSA, strain MRSA 09 | MRSA, strain MRSA 15 | MRSA, strain MRSA 17 | MRSA, strain MRSA 24 | MRSA, strain MRSA 49 | MRSA, strain MRSA 54 | MRSA, strain MRSA 61 | MRSA, strain MRSA 62 | MRSA, strain MRSA 77 | MRSA, strain MRSA 82 | MRSA, strain MRSA 84 | MRSA, strain MRSA 86 | MRSA, strain MRSA 93 | MRSA, strain MRSA 94 | MRSA, strain MRSA 95
1 µg/mL: ATCC29213, strain ATCC 29213 | MRSA, strain MRSA 01 | MRSA, strain MRSA 03 | MRSA, strain MRSA 05 | MRSA, strain MRSA 07 | MRSA, strain MRSA 08 | MRSA, strain MRSA 10 | MRSA, strain MRSA 11 | MRSA, strain MRSA 13 | MRSA, strain MRSA 14 | MRSA, strain MRSA 16 | MRSA, strain MRSA 18 | MRSA, strain MRSA 19 | MRSA, strain MRSA 20 | MRSA, strain MRSA 21 | MRSA, strain MRSA 23 | MRSA, strain MRSA 25 | MRSA, strain MRSA 26 | MRSA, strain MRSA 27 | MRSA, strain MRSA 27b | MRSA, strain MRSA 28 | MRSA, strain MRSA 29 | MRSA, strain MRSA 30 | MRSA, strain MRSA 31 | MRSA, strain MRSA 32 | MRSA, strain MRSA 33 | MRSA, strain MRSA 34 | MRSA, strain MRSA 35 | MRSA, strain MRSA 36 | MRSA, strain MRSA 37 | MRSA, strain MRSA 38 | MRSA, strain MRSA 39 | MRSA, strain MRSA 40 | MRSA, strain MRSA 41 | MRSA, strain MRSA 42 | MRSA, strain MRSA 43 | MRSA, strain MRSA 44 | MRSA, strain MRSA 45 | MRSA, strain MRSA 46 | MRSA, strain MRSA 50 | MRSA, strain MRSA 51 | MRSA, strain MRSA 52 | MRSA, strain MRSA 53 | MRSA, strain MRSA 56 | MRSA, strain MRSA 57 | MRSA, strain MRSA 58 | MRSA, strain MRSA 59 | MRSA, strain MRSA 63 | MRSA, strain MRSA 64 | MRSA, strain MRSA 65 | MRSA, strain MRSA 66 | MRSA, strain MRSA 67 | MRSA, strain MRSA 68 | MRSA, strain MRSA 69 | MRSA, strain MRSA 70 | MRSA, strain MRSA 71 | MRSA, strain MRSA 72 | MRSA, strain MRSA 73 | MRSA, strain MRSA 74 | MRSA, strain MRSA 75 | MRSA, strain MRSA 76 | MRSA, strain MRSA 78 | MRSA, strain MRSA 79 | MRSA, strain MRSA 80 | MRSA, strain MRSA 81 | MRSA, strain MRSA 83 | MRSA, strain MRSA 85 | MRSA, strain MRSA 87 | MRSA, strain MRSA 88 | MRSA, strain MRSA 89 | MRSA, strain MRSA 90 | MRSA, strain MRSA 91 | MRSA, strain MRSA 92 | MRSA, strain MRSA 96 | MRSA, strain MRSA 97 | MRSA, strain MRSA 98 | MRSA, strain MRSA 99 | MRSA, strain MRSA 100 | MRSA, strain MRSA 101
0.5 µg/mL: MRSA, strain MRSA 22 | MRSA, strain MRSA 47 | MRSA, strain MRSA 48 | MRSA, strain MRSA 55 | MRSA, strain MRSA 60
